Measurements reported in PMC5218480 (PLoS ONE, 2017).

Tested on: MV-4-11 cells
Assay: Gene expression microarray analysis (Affymetrix PrimeView) and GSEA
Assay type: cell-based, human
Set-up: RFU PODN (11730768_x_at) / Fold change /veh PODN (11730768_x_at) / RFU LINC00158 (11744669_a_at) / Fold change /veh LINC00158 (11744669_a_at) / RFU DUSP10 (11751237_a_at) / Fold change /veh DUSP10 (11751237_a_at) / RFU ID3 (11757404_x_at) / Fold change /veh ID3 (11757404_x_at) / RFU PLEKHG5 (11737974_s_at) / Fold change /veh PLEKHG5 (11737974_s_at) / RFU LRRC4B (11730491_at) / Fold change /veh LRRC4B (11730491_at) / RFU GIMAP4 (11747438_a_at) / Fold change /veh GIMAP4 (11747438_a_at) / RFU KRT8 (11758183_x_at) / Fold change /veh KRT8 (11758183_x_at) / RFU CNN1 (11734310_a_at) / Fold change /veh CNN1 (11734310_a_at) / RFU VPS37D (11726825_at) / Fold change /veh VPS37D (11726825_at) / RFU C10orf10 (11716522_x_at) / Fold change /veh C10orf10 (11716522_x_at) / RFU KIR2DL2 /// KIR2DL4 /// KIR2DL5A /// KIR2DL5B /// KIR2DS1 /// KIR2DS2 /// KIR2DS3 /// KIR2DS4 /// KIR3DL3 /// KIR3DL3 /// KIR3DS1 (11738374_at) / Fold change /veh KIR2DL2 /// KIR2DL4 /// KIR2DL5A /// KIR2DL5B /// KIR2DS1 /// KIR2DS2 /// KIR2DS3 /// KIR2DS4 /// KIR3DL3 /// KIR3DL3 /// KIR3DS1 (11738374_at) / RFU C1QL1 (11718748_at) / Fold change /veh C1QL1 (11718748_at) / RFU TMPRSS4 (11747572_a_at) / Fold change /veh TMPRSS4 (11747572_a_at) / RFU HAMP (11756126_x_at) / Fold change /veh HAMP (11756126_x_at) / RFU RNFT2 (11725882_a_at) / Fold change /veh RNFT2 (11725882_a_at) / RFU NR4A2 (11747474_a_at) / Fold change /veh NR4A2 (11747474_a_at) / RFU ABCC12 (11746883_a_at) / Fold change /veh ABCC12 (11746883_a_at) / RFU TMEM136 (11760407_x_at) / Fold change /veh TMEM136 (11760407_x_at) / RFU CLDN22 /// WWC2 (11732394_at) / Fold change /veh CLDN22 /// WWC2 (11732394_at) / RFU HLA-DPB1 (11760878_x_at) / Fold change /veh HLA-DPB1 (11760878_x_at) / RFU SPINT1 (11716480_a_at) / Fold change /veh SPINT1 (11716480_a_at) / RFU GAP43 (11754022_s_at) / Fold change /veh GAP43 (11754022_s_at) / RFU A4GNT (11735810_at) / Fold change /veh A4GNT (11735810_at) / RFU PRB3 (11715151_x_at) / Fold change /veh PRB3 (11715151_x_at) / RFU TUBB4B (11761932_at) / Fold change /veh TUBB4B (11761932_at) / RFU CAPN14 (11732068_a_at) / Fold change /veh CAPN14 (11732068_a_at) / RFU TMCC2 (11721928_a_at) / Fold change /veh TMCC2 (11721928_a_at) / RFU IRGQ (11745062_a_at) / Fold change /veh IRGQ (11745062_a_at) / RFU FAM174B (11720279_a_at) / Fold change /veh FAM174B (11720279_a_at) / RFU TMPRSS4 (11748680_a_at) / Fold change /veh TMPRSS4 (11748680_a_at) / RFU FAM212B (11763350_a_at) / Fold change /veh FAM212B (11763350_a_at) / RFU PLEKHG5 (11743358_a_at) / Fold change /veh PLEKHG5 (11743358_a_at) / RFU ZSCAN30 (11745921_a_at) / Fold change /veh ZSCAN30 (11745921_a_at) / RFU CMKLR1 (11741424_a_at) / Fold change /veh CMKLR1 (11741424_a_at) / RFU LOC101060620 /// MAPK8IP1 (11723275_at) / Fold change /veh LOC101060620 /// MAPK8IP1 (11723275_at) / RFU SPTSSB (11747773_x_at) / Fold change /veh SPTSSB (11747773_x_at) / RFU PRSS12 (11739890_at) / Fold change /veh PRSS12 (11739890_at) / RFU BIN1 (11741810_x_at) / Fold change /veh BIN1 (11741810_x_at) / RFU WNT11 (11732464_a_at) / Fold change /veh WNT11 (11732464_a_at) / RFU C10orf10 (11716521_a_at) / Fold change /veh C10orf10 (11716521_a_at) / RFU C5orf56 (11738089_at) / Fold change /veh C5orf56 (11738089_at) / RFU CYB561 (11721691_x_at) / Fold change /veh CYB561 (11721691_x_at) / RFU ANKRD19P (11752326_a_at) / Fold change /veh ANKRD19P (11752326_a_at) / RFU OR2T12 /// OR2T33 /// OR2T8 (11738714_s_at) / Fold change /veh OR2T12 /// OR2T33 /// OR2T8 (11738714_s_at) / RFU VCAN (11748164_a_at) / Fold change /veh VCAN (11748164_a_at) / RFU JSRP1 (11732532_at) / Fold change /veh JSRP1 (11732532_at) / RFU KRTAP10-11 (11738290_x_at) / Fold change /veh KRTAP10-11 (11738290_x_at) / RFU MYO3A (11730013_a_at) / Fold change /veh MYO3A (11730013_a_at) / RFU EBF3 (11725865_a_at) / Fold change /veh EBF3 (11725865_a_at) / RFU CAMK2N1 (11719241_x_at) / Fold change /veh CAMK2N1 (11719241_x_at) / RFU C5orf56 (11738088_a_at) / Fold change /veh C5orf56 (11738088_a_at) / RFU OLFML3 (11715873_a_at) / Fold change /veh OLFML3 (11715873_a_at) / RFU LOC100653217 /// NTM (11731650_a_at) / Fold change /veh LOC100653217 /// NTM (11731650_a_at) / RFU MAPK11 (11762145_a_at) / Fold change /veh MAPK11 (11762145_a_at) / RFU FIZ1 (11724087_x_at) / Fold change /veh FIZ1 (11724087_x_at) / RFU OASL (11726364_x_at) / Fold change /veh OASL (11726364_x_at) / RFU SOX15 (11748057_x_at) / Fold change /veh SOX15 (11748057_x_at) / RFU CD79A (11719716_a_at) / Fold change /veh CD79A (11719716_a_at) / RFU HIST1H1D (11736915_at) / Fold change /veh HIST1H1D (11736915_at) / RFU CASKIN2 (11723855_a_at) / Fold change /veh CASKIN2 (11723855_a_at) / RFU LOC730098 (11760151_x_at) / Fold change /veh LOC730098 (11760151_x_at) / RFU OR4N2 (11742367_at) / Fold change /veh OR4N2 (11742367_at) / RFU PRRT2 (11749266_a_at) / Fold change /veh PRRT2 (11749266_a_at) / RFU SNX32 (11753110_a_at) / Fold change /veh SNX32 (11753110_a_at) / RFU CDHR5 (11726645_a_at) / Fold change /veh CDHR5 (11726645_a_at) / RFU RCAN1 (11760418_a_at) / Fold change /veh RCAN1 (11760418_a_at) / RFU FAM167A (11723789_a_at) / Fold change /veh FAM167A (11723789_a_at) / RFU FAM26E (11764081_at) / Fold change /veh FAM26E (11764081_at) / RFU ISYNA1 (11749810_s_at) / Fold change /veh ISYNA1 (11749810_s_at) / RFU ACY1 (11761880_at) / Fold change /veh ACY1 (11761880_at) / RFU 11764098_at / Fold change /veh 11764098_at / RFU SAMD14 (11745864_x_at) / Fold change /veh SAMD14 (11745864_x_at) / RFU NPB (11741838_a_at) / Fold change /veh NPB (11741838_a_at) / RFU TMPRSS6 (11731388_a_at) / Fold change /veh TMPRSS6 (11731388_a_at) / RFU KRTAP10-2 (11738614_at) / Fold change /veh KRTAP10-2 (11738614_at) / RFU ARHGAP8 /// PRR5-ARHGAP8 (11727945_x_at) / Fold change /veh ARHGAP8 /// PRR5-ARHGAP8 (11727945_x_at) / RFU KRTAP5-7 /// NADSYN1 (11734609_at) / Fold change /veh KRTAP5-7 /// NADSYN1 (11734609_at) / RFU RASL12 (11751679_a_at) / Fold change /veh RASL12 (11751679_a_at) / RFU CDKN2B (11736163_a_at) / Fold change /veh CDKN2B (11736163_a_at) / RFU PRF1 (11729649_at) / Fold change /veh PRF1 (11729649_at) / RFU, ZNF638 /// ZNF638-IT1 / Fold change vs veh, ZNF638 /// ZNF638-IT1 / RFU, PANK3 / Fold change vs veh, PANK3 / RFU, SH3YL1 / Fold change vs veh, SH3YL1 / RFU, ZEB2 / Fold change vs veh, ZEB2 / RFU, NRIP1 / Fold change vs veh, NRIP1 / RFU, PTTG1IP / Fold change vs veh, PTTG1IP / RFU, CAPN2 / Fold change vs veh, CAPN2 / RFU, MED14 / Fold change vs veh, MED14 / RFU, SNORA58 / Fold change vs veh, SNORA58 / RFU, C1orf63 / Fold change vs veh, C1orf63 / RFU, LRRFIP1 / Fold change vs veh, LRRFIP1 / RFU, NDUFAF7 / Fold change vs veh, NDUFAF7 / RFU, SLC12A2 / Fold change vs veh, SLC12A2 / RFU, IBTK / Fold change vs veh, IBTK / RFU, ESF1 / Fold change vs veh, ESF1 / Fold change vs veh, TMEM50B / RFU, TAOK1 / Fold change vs veh, TAOK1 / RFU, ACBD3 / Fold change vs veh, ACBD3 / RFU, TMA16 / Fold change vs veh, TMA16 / RFU, RWDD3 / Fold change vs veh, RWDD3 / RFU, BCAT1 / Fold change vs veh, BCAT1 / RFU, EDEM3 / Fold change vs veh, EDEM3 / RFU, TMEM33 / Fold change vs veh, TMEM33 / RFU, WDR75 / Fold change vs veh, WDR75 / RFU, AHCTF1 / Fold change vs veh, AHCTF1 / RFU, TFRC / Fold change vs veh, TFRC / RFU, ZDHHC17 / Fold change vs veh, ZDHHC17 / RFU, NOM1 / Fold change vs veh, NOM1 / RFU, ARL8B / Fold change vs veh, ARL8B / RFU, ZBTB11 / Fold change vs veh, ZBTB11 / RFU, TAMM41 / Fold change vs veh, TAMM41 / RFU, KIAA1704 /// LOC100996395 / Fold change vs veh, KIAA1704 /// LOC100996395 / RFU, ING1 / Fold change vs veh, ING1 / RFU, TRMT61B / Fold change vs veh, TRMT61B / RFU, FUBP3 / Fold change vs veh, FUBP3 / RFU, TP53 / Fold change vs veh, TP53 / RFU, TNKS2 / Fold change vs veh, TNKS2 / RFU, ZFP14 / Fold change vs veh, ZFP14 / RFU, ACTR2 / Fold change vs veh, ACTR2 / RFU, PPP3R1 / Fold change vs veh, PPP3R1 / RFU, PIK3R1 / Fold change vs veh, PIK3R1 / RFU, HNRNPA1 / Fold change vs veh, HNRNPA1 / RFU, RNF170 / Fold change vs veh, RNF170 / RFU, ZNF28 / Fold change vs veh, ZNF28 / RFU, RNGTT / Fold change vs veh, RNGTT / RFU, OGT / Fold change vs veh, OGT / RFU, BRD1 / Fold change vs veh, BRD1 / RFU, MARS / Fold change vs veh, MARS / RFU, ZNF655 / Fold change vs veh, ZNF655 / RFU, FAHD1 / Fold change vs veh, FAHD1 / RFU, BDP1 / Fold change vs veh, BDP1 / RFU, LRRCC1 / Fold change vs veh, LRRCC1 / RFU, ARID1A / Fold change vs veh, ARID1A / RFU, ZNF146 / Fold change vs veh, ZNF146 / RFU, ZNF330 / Fold change vs veh, ZNF330 / RFU, GPN3 / Fold change vs veh, GPN3 / RFU, C9orf123 / Fold change vs veh, C9orf123 / RFU, N4BP2L2 / Fold change vs veh, N4BP2L2 / RFU, ARFIP1 / Fold change vs veh, ARFIP1 / RFU, FAM179B / Fold change vs veh, FAM179B / RFU, BCL10 / Fold change vs veh, BCL10 / RFU, UHRF1BP1L / Fold change vs veh, UHRF1BP1L / RFU, BET1 / Fold change vs veh, BET1 / RFU, CNOT2 / Fold change vs veh, CNOT2 / RFU, ZNF268 / Fold change vs veh, ZNF268 / Fold change vs veh, ZNF507 / RFU, DGCR2 / Fold change vs veh, DGCR2 / RFU, WDSUB1 / Fold change vs veh, WDSUB1 / Fold change vs veh, HSP90B1 /// MIR3652 / RFU, ADSS / Fold change vs veh, ADSS / RFU, GK / Fold change vs veh, GK / RFU, ZNF148 / Fold change vs veh, ZNF148 / RFU, TAF9 / Fold change vs veh, TAF9 / RFU, SLC1A5 / Fold change vs veh, SLC1A5 / RFU, SLMO2 / Fold change vs veh, SLMO2 / RFU, ABCC4 / Fold change vs veh, ABCC4 / RFU, LOC101060439 /// RAP1B / Fold change vs veh, LOC101060439 /// RAP1B / RFU, RFX7 / Fold change vs veh, RFX7 / RFU, GTPBP10 / Fold change vs veh, GTPBP10 / RFU, CNEP1R1 / Fold change vs veh, CNEP1R1 / RFU, BIVM-ERCC5 /// ERCC5 / Fold change vs veh, BIVM-ERCC5 /// ERCC5 / RFU, ILF3 / Fold change vs veh, ILF3 / RFU 11762660_at / Fold change /veh 11762660_at / RFU VCAN (11757783_s_at) / Fold change /veh VCAN (11757783_s_at) / RFU DDX43 (11728927_at) / Fold change /veh DDX43 (11728927_at) / RFU KRT8 (11758188_x_at) / Fold change /veh KRT8 (11758188_x_at) / RFU NKD1 (11759106_at) / Fold change /veh NKD1 (11759106_at) / RFU SRD5A1 (11742802_a_at) / Fold change /veh SRD5A1 (11742802_a_at) / RFU TPSAB1 /// TPSB2 (11721975_s_at) / Fold change /veh TPSAB1 /// TPSB2 (11721975_s_at) / RFU GSTM3 (11746129_a_at) / Fold change /veh GSTM3 (11746129_a_at) / RFU IL23R (11737362_x_at) / Fold change /veh IL23R (11737362_x_at) / RFU TMEM51 (11727254_a_at) / Fold change /veh TMEM51 (11727254_a_at) / RFU PIWIL2 (11732686_x_at) / Fold change /veh PIWIL2 (11732686_x_at) / RFU ORM1 (11744905_x_at) / Fold change /veh ORM1 (11744905_x_at) / RFU CCDC152 (11743942_at) / Fold change /veh CCDC152 (11743942_at) / RFU ECM1 (11717891_a_at) / Fold change /veh ECM1 (11717891_a_at) / RFU IL23R (11748794_a_at) / Fold change /veh IL23R (11748794_a_at) / RFU TNFAIP8L3 (11732012_x_at) / Fold change /veh TNFAIP8L3 (11732012_x_at) / RFU MBOAT4 (11741988_at) / Fold change /veh MBOAT4 (11741988_at) / RFU 11764193_at / Fold change /veh 11764193_at / RFU TMEM53 (11763286_at) / Fold change /veh TMEM53 (11763286_at) / RFU MAGEB2 (11727129_at) / Fold change /veh MAGEB2 (11727129_at) / RFU TMEM200A (11744735_a_at) / Fold change /veh TMEM200A (11744735_a_at) / RFU CCDC152 (11751479_a_at) / Fold change /veh CCDC152 (11751479_a_at) / RFU FAM211A (11726209_a_at) / Fold change /veh FAM211A (11726209_a_at) / RFU RGS16 (11746705_a_at) / Fold change /veh RGS16 (11746705_a_at) / RFU VCAN (11755009_s_at) / Fold change /veh VCAN (11755009_s_at) / RFU RHOB (11743442_s_at) / Fold change /veh RHOB (11743442_s_at) / RFU RGS16 (11720943_a_at) / Fold change /veh RGS16 (11720943_a_at) / RFU RGS16 (11720944_at) / Fold change /veh RGS16 (11720944_at) / RFU, VPS4B / Fold change vs veh, VPS4B / RFU, CREB1 / Fold change vs veh, CREB1 / RFU, DNAJC13 / Fold change vs veh, DNAJC13 / RFU, GNAQ / Fold change vs veh, GNAQ / RFU, CDK5R1 / Fold change vs veh, CDK5R1 / RFU, ZRANB3 / Fold change vs veh, ZRANB3 / RFU, CUL4A / Fold change vs veh, CUL4A / RFU, CCNY / Fold change vs veh, CCNY / RFU, UFL1 / Fold change vs veh, UFL1 / RFU, COG3 / Fold change vs veh, COG3 / RFU, DIAPH2 / Fold change vs veh, DIAPH2 / RFU, SKA2 / Fold change vs veh, SKA2 / RFU, AFF3 / Fold change vs veh, AFF3 / RFU, LMF1 / Fold change vs veh, LMF1 / RFU, IPO11 / Fold change vs veh, IPO11 / RFU, DFFB / Fold change vs veh, DFFB / RFU, FOXP1 / Fold change vs veh, FOXP1 / RFU, CARD8 / Fold change vs veh, CARD8 / RFU, STRN3 / Fold change vs veh, STRN3 / RFU, ADK / Fold change vs veh, ADK / RFU, RASSF2 / Fold change vs veh, RASSF2 / RFU, WIPF1 / Fold change vs veh, WIPF1 / RFU, LARP1B / Fold change vs veh, LARP1B / RFU, RASA1 / Fold change vs veh, RASA1 / RFU, RB1 / Fold change vs veh, RB1 / RFU, PPFIA1 / Fold change vs veh, PPFIA1 / RFU, MAT2A / Fold change vs veh, MAT2A / RFU, CCT5 / Fold change vs veh, CCT5 / RFU, WDR92 / Fold change vs veh, WDR92 / RFU, CUX1 / Fold change vs veh, CUX1 / RFU, TTC7A / Fold change vs veh, TTC7A / RFU, TMEM135 / Fold change vs veh, TMEM135 / RFU, DEPTOR / Fold change vs veh, DEPTOR / RFU, CPM / Fold change vs veh, CPM / RFU, DNAJB6 / Fold change vs veh, DNAJB6 / RFU, CACNA2D3 / Fold change vs veh, CACNA2D3 / RFU, DTX4 / Fold change vs veh, DTX4 / RFU, TFCP2 / Fold change vs veh, TFCP2 / RFU, GMCL1 /// GMCL1P1 / Fold change vs veh, GMCL1 /// GMCL1P1 / RFU, AEBP2 / Fold change vs veh, AEBP2 / RFU, SNHG1 /// SNORD22 /// SNORD25 /// SNORD26 /// SNORD27 /// SNORD28 /// SNORD29 /// SNORD31 / Fold change vs veh, SNHG1 /// SNORD22 /// SNORD25 /// SNORD26 /// SNORD27 /// SNORD28 /// SNORD29 /// SNORD31 / Fold change (Aza/veh), C12orf56 (ProbeSet 11735607_a_at) / Fold change (ACY-1035/veh), C12orf56 (ProbeSet 11735607_a_at) / Fold change (Aza/veh), FGFR1OP (ProbeSet 11751329_s_at) / Fold change (ACY-1035/veh), FGFR1OP (ProbeSet 11751329_s_at) / Fold change (Aza/veh), VPS36 (ProbeSet 11739960_a_at) / Fold change (ACY-1035/veh), VPS36 (ProbeSet 11739960_a_at) / RFU SYPL1 (11715823_x_at) / Fold change /veh SYPL1 (11715823_x_at) / RFU IGFBP7 (11715501_s_at) / Fold change /veh IGFBP7 (11715501_s_at) / RFU REEP3 (11722064_at) / Fold change /veh REEP3 (11722064_at) / RFU IGLL1 (11728026_x_at) / Fold change /veh IGLL1 (11728026_x_at): dose or concentration left out as unconfirmed
Details: MV-4-11 cells, 48 hours

## Nc1ncn([C@@H]2O[C@H](CO)[C@@H](O)[C@H]2O)c(=O)n1 [azacitidine]
  Fold change /veh FAM211A (11726209_a_at): 1.26
